Consider 1 compound from article PMC7010356, “The thermodynamic profile and molecular interactions of a C(9)-cytisine derivative-binding acetylcholine-binding protein from Aplysia californica” (Acta Crystallographica. Section F, Structural Biology …, 2020).

Structures are written as SMILES.

By Kd is commonly meant the concentration at which binding is half-saturated. Read a high Kd as lower affinity.

This test deals with T1, acetylcholine-binding protein (AcAChBP) (Aplysia californica, UniProt Q8WSF8).
T1 construct: recombinant AcAChBP with a C-terminal Tobacco etch virus cleavage site and His6 tag; homopentamer
T1 sequence (Q8WSF8 20-236): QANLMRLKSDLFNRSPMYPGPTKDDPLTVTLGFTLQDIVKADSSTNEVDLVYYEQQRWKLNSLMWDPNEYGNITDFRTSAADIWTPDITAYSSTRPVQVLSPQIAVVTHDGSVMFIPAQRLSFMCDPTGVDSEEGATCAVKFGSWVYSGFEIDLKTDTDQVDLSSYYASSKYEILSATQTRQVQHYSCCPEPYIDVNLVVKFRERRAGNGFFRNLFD
The experiment in a line: ITC and […] Å crystal structure.

With `O=c1c(CCCO)ccc2n1C[C@@H]1CNC[C@H]2C1` [compound 4, (1R,5S)-9-(3-hydroxypropyl)-1,2,3,4,5,6-hexahydro-1,5-methano-8H-pyrido[1,2a][1,5]diazocin-8-one], binding was put at a Kd of 53.3 µM.
